Legend:
Format in all cases: cell-based, human
NF-κB [1] = experiment: Western immunoblot of NF-κB activation (p65, p50, IκB) in myometrial cells; set-up: Accumulation of phosphorylated IκBα: dose or concentration left out as unconfirmed
Protocol: Western immunoblots of nuclear or cytosolic protein extracts from (A) myometrial cells, (B) L− amnion cells, and (C) L+amnion cells treated with 15dPGJ2 or vehicle for 2 h+/−IL-1, stimulation (15 min). Blots probed with antibodies against p65, p50 or IκBα.
Western immunoblot of nuclear or cytosolic protein extracts from myometrial cells treated with PGA1 or vehicle for 2 h followed by IL-1β stimulation (15 min). Blots probed with antibodies against p65 or IκBa.
Analysis of nuclear protein extracts from myometrial cells treated with PGE2 or vehicle for 2 h+/−TNFα or IL-1b stimulation (15 min). (A) EMSA using consensus κB probe. (B) Western immunoblot probing for nuclear p65.
(§1) Western immunoblots of cytosolic extracts from myometrial cells (A) treated with 15dPGJ2 for 2 h+/−IL1b for 15 min; probed for IKK, and (B) treated with […] 15dPGJ2, […] MG132 or vehicle for 2 h, +/−IL-1β for 15 min; probed for IκBα.
(§2) Myometrial tissue was collected at term from the upper margin of uterine incision at the time of lower segment caesarean section either prior to the onset of labour (L−) or […] (L+). L+ samples were collected by Dr Mark Johnson and Dr S Soorrana at Chelsea & Westminster Hospital. Myometrial tissue was dissected, rinsed in PBS, and digested in serum-free DMEM containing 15 mg/ml collagenase 1A (Sigma), 15 mg/ml collagenase X, and 50 mg/ml bovine serum albumin for 45 min at 37° C. The cell suspension was filtered through a cell strainer, centrifuged at 400 g for 5 min, and the pellet re-suspended and plated out in DMEM, 10% FCS (Helena BioScience), 1% L-glutamine, 1% penicillin-streptomycin. Cells were used between passage numbers 1-4.
Nuclear and cytosolic protein extracts were obtained from cultured amnion cells as described by Schreiber et al (1989). For nuclear/cytosolic fractionation, confluent cell monolayers were scraped and lysed using a buffer containing 10 mM HEPES, 10 mM KCl, 0.1 mM EDTA, 0.1 mM EGTA, 2 mM DTT, 1% (v/v) NP-40 and complete protease inhibitor tablets (CPIs, Roche), diluted to manufacturer's instructions. Cell lysates were incubated on ice for 10 min and NP-40 added to a final concentration of 1% (v/v). Lysates were vortexed for 10 secs and centrifuged for 30 secs at 4° C., 12000 g. The supernatants were retained as the cytosolic protein extracts. The pellets were resuspended in buffer containing 10 mM HEPES, 10 mM KCl, 0.1 mM EDTA, 0.1 mM EGTA, 2 mM DTT, 400 mM NaCl, 1% NP-40 (v/v) and CPIs. Samples were shaken vigorously for 15 min in an ice bath. The nuclear protein extracts were obtained in the supernatant following a 5 min centrifugation at 4° C., 12000 g.
(§3) Protein samples (20-70 μg) were mixed with Laemmli sample buffer (1:1) containing β-mercaptoethanol (5%), and boiled for 5 min. Proteins were then separated by SDS-PAGE (12-14% gels) and transferred onto PVDF membrane (Amersham Pharmacia Biotech). The membranes were blocked overnight in 5% non-fat milk prepared in PBS-T buffer, at 4° C. The blots were incubated with the primary antibody in 1% non-fat milk in PBS-T buffer for 1 h, and washed three times (10 min each) in PBS-T with vigorous shaking. The blots were then incubated with HRP-conjugated secondary antibody (diluted 1:2000 in 1% non-fat milk in PBS-T buffer) for 1 h and washed three times (10 min each) in PBS-T. Signal detection was achieved using enhanced chemi-luminescence (ECL plus system, Amersham Pharmacia Biotech) according to manufacturer's instructions.
(§4) 30-50 μg protein extracts were subjected to SDS-PAGE and Western immuno-blotting. Secondary antibodies were IgG-HRP and ECL Plus detection kit (Amersham Pharmacia Biotech, Amersham Place, Little Chalfont, Bucks, HP7 9NA) was used for visualisation.

NF-κB [2] = experiment: NF-κB-dependent luciferase reporter (κB.BG.Luc) in amnion cells; details: L− and L+ amnion cells, treated 2 h, IL-1β 1 ng/ml 6 h
Protocol: . Values are normalised for b-gal reporter activity.
(§5) Placentae were obtained from patients at term either at elective Caesarean section prior to labour (L−) or following spontaneous labour onset and vaginal delivery (L+). Amnion cells were prepared as described in Bennett et al., (1989). Briefly, the amnion was separated from the placenta, washed 3× in PBS, cut into strips, and incubated in 0.51 mM EDTA in PBS for 15 min. The strips were washed in PBS 2× and digested with 2.5 mg/ml dispase in serum-free DMEM for 35 min at 37° C. The amnion was then shaken vigorously in DMEM, 10% FCS to dissociate the cells, the remaining strips discarded, and the cell suspension pelleted at 175 g for 10 min and cultured in DMEM, 10% FCS (Sigma), 1% L-glutamine, 1% penicillin-streptomycin.
pGL3.6 κB.BG.luc was the reporter construct used to assess NF-κB-mediated transcription, while the mutant pGL3.6 κBmut.luc and empty pGL3.BG.luc were used as controls (Schwarzer et al., 1998).
pGL3.6 κB.BG.luc: a NF-κB-dependent reporter construct with 6 copies of the NF-κB binding site. It contains two tandem repeats of the sequence 5′-GGG GAC TTT C CC TGGGGACTTTCCCTGGGGACTTTCCC-3′, which contains three copies of the decameric NF-κB binding site (underlined) upstream of a minimal β-globin promoter driving a luciferase gene. […]

NF-κB [3] = experiment: NF-κB-dependent luciferase reporter (κB.BG.Luc) in myometrial cells; details: for IL-1-induced NF-κB transcriptional activity: treated 2 h, IL-1β 1 ng/ml 6 h
Protocol: Myometrial cells were transiently transfected with the NFκB-dependent reporter construct κB.BG.Luc, treated with 15dPGJ2 or vehicle for 2 h, +/−IL-1β(1 ng/ml) for 6 h. […] Values are normalised for b-gal reporter activity. (NS=nonstimulated).
Myometrial cells were transfected with […] κB.BG.Luc reporter and 200 ng PPAR-γ expression vector and treated with 15d-PGJ2 for 2 h followed by IL-1β (1 ng/ml) for 6 h. Values are normalised for β-galactosidase reporter activity. (NS=nonstimulated).
as §2
pGL3.6 κB.BG.luc: a NF-κB-dependent reporter construct with 6 copies of the NF-κB binding site.
Cells were co-transfected with the renilla vector pRL-CMV or a β-galactosidase vector pCH110 as internal controls for transfection efficiencies.

IKKα or IKKβ = experiment: Western immunoblot of IKK protein expression in myometrial cells
Protocol: as §1, §3, §4

COX-2 [4] = experiment: Western immunoblot of IL-1β-induced COX-2 protein expression in myometrial cells; details: treated 2 h, IL-1β 6 h
Protocol: as §2
as §3, with “The membranes were blocked overnight in 5% non-fat milk prepared in PBS-T buffer, at 4° C. The blots were incubated with the primary antibody in 1% non-fat milk in PBS-T buffer for 1 h, and washed three times (10 min each) in PBS-T with vigorous shaking.” left out, “instructions. […]” for “instructions.”

COX-2 [5] = experiment: IL-1β-induced COX-2 expression in L− and L+ amnion cells
Protocol: as §5
as §3, with “The blots were incubated with the primary antibody in 1% non-fat milk in PBS-T buffer for 1 h, and washed three times (10 min each) in PBS-T with vigorous shaking.” left out, “instructions. […]” for “instructions.”

Row | Structure (SMILES) | IL-1β-induced IκBα degradation (NF-κB [1]) | IL-1β-induced p65 nuclear translocation (NF-κB [1]) | IL-1-induced NF-κB transcriptional activity (NF-κB [2]) | IL-1-induced NF-κB transcriptional activity (NF-κB [3]) | IKKα or IKKβ protein expression (IKKα or IKKβ) | IL-1β-induced IκBα and IκBβ degradation (NF-κB [1]) | IL-1β-induced p50 phosphorylation (NF-κB [1]) | Accumulation of phosphorylated IκBα (NF-κB [1]; 2 h, IL-1β 15 min) | IκBα phosphorylation (NF-κB [1]; cytosolic extracts) | IL-1β-induced COX-2 expression (COX-2 [4]) | Effect of PPARγ overexpression on 15d-PGJ2 inhibition of NF-κB transcriptional activity (NF-κB [3]; 200 ng PPAR-γ expression vector) | IL-1β-induced COX-2 expression (COX-2 [5])
1 | CCCCC[C@H](O)/C=C/[C@H]1C=CC(=O)[C@@H]1CCCCCCC(=O)O [PGA1, prostaglandin A1] | inhibited | inhibited | inhibited | reduced to basal levels |  |  |  |  |  |  |  | 
2 | CCCCCC=CC=C1C(=O)C=C[C@@H]1CC=CCCCC(=O)O [15d-PGJ2, 15-deoxy-Δ^12,14prostaglandin J2] |  | inhibited | inhibited | inhibited | had no effect | inhibition | inhibited | not detected | inhibits | inhibited | did not promote | inhibited

From US20070270392A1, “Use of a Cyclopentenone Prostaglandin for Delaying the Onset and/or Preventing the Continuation of Labour” (Imperial College Innovations Limited, priority 2003, published 2007)
